Measurements: patent US10125358B2, “Methods and compounds for increasing threonyl-tRNA synthetase activity” (UNIVERSITY OF VERMONT AND STATE AGRICULTURAL COLLEGE, priority 2012, dated 2018)
Entries after “also recorded” stand apart in the source; their conditions may differ.

Test system: SKOV-3 cells
Experiment: HIF-1α stabilization in hypoxia (Western blot)
Assay type: cell-based
Experimental: After treatments, cells were harvested into sample buffer containing: 0.2 M Tris-HCL, 4% SDS, 4% β-mercaptoethanol, 40% glycerol, 4 μM pyronin Y. Extracts were sheared through a 24-gauge syringe. Samples were separated by 10% SDS-PAGE and transferred to nitrocellulose membrane and probed with rabbit polyclonal anti-TARS (1:500; Santa Cruz Biotechnology, Dallas, Tex.) or monoclonal anti-HIF-1α (BD Transduction Laboratories, [BD Biosciences, San Jose, Calif.]) (Lounsbury, Beddow et al. 1994). Secondary antibodies were HRP-goat-anti-mouse and HRP-goat-anti-rabbit (1:5,000; Jackson Laboratories, Bar Harbor, Me.).

C[C@@H]1C[C@H](C)C[C@H](C)[C@@H](O)CC(=O)O[C@H]([C@@H]2CC[C@H]2C(=O)O)C/C=C/C=C(/C#N)[C@H](O)[C@@H](C)C1 [BC194]
HIF-1α transcription (SK-OV3 cells responding to hypoxia): no change in HIF-1α transcription | HIF-1α protein stabilization (hypoxia (2% O2), 6 h): diminished the levels of HIF-1α protein stabilization; also recorded: reduce HIF-1α stabilization
